One data set deals with T1, Anionic trypsin-2 (Rattus norvegicus, UniProt P00763).
T1 sequence (P00763 whole entry): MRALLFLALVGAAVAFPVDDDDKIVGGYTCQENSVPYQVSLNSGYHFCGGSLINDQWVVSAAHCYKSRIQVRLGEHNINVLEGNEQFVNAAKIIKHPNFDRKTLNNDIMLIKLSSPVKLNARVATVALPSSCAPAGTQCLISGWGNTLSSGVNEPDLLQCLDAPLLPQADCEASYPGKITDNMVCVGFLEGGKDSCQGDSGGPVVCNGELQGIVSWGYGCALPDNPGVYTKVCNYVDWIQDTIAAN
The data set can be described thus: Inhibitory concentration against trypsin.

The target in data set [1] is T2, Prothrombin (Homo sapiens, UniProt P00734).
For another data set, the target named is Coagulation factor X (Homo sapiens, UniProt P00742). The experiment in a line: Inhibitory concentration to factor Xa.
Chain of Coagulation factor X (P00742 41-179 limits assumed): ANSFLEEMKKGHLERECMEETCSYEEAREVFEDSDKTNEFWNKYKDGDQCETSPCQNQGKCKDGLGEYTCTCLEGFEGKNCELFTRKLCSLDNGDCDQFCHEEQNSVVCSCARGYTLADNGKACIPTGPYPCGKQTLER
Chain of Coagulation factor X (P00742 235-488 limits assumed): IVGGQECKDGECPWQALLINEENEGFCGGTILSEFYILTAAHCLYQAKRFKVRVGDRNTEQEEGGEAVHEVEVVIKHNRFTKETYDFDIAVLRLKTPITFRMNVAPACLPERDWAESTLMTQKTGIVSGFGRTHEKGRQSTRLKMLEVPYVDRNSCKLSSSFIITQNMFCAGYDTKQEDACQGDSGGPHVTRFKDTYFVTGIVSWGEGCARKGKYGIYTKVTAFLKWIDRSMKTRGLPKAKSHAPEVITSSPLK
Data set [2] in a line: Bioavailability in rat at an oral dose of 2 mg/kg. It is filed as ADME, organism-based. Particulars: in vivo.
Data set [3] has as its system Oryctolagus cuniculus. The experiment in a line: Percent inhibition of thrombosis at the dose of 100 ug/kg in rabbit deep vein thrombosis model. The format is functional.
A short description of data set [4]: Half-life period in rats following intravenous administration at 2 mg/kg. The format is ADME, organism-based. As to conditions: rat, in vivo. More on the design: dose 2 mg/kg, route intravenous.
Data set [5] deals with Oryctolagus cuniculus. The data set can be described thus: Percent inhibition of thrombosis at the dose of 50 ug/kg in rabbit deep vein thrombosis model. It is filed as functional.
Data set [6] relates to Oryctolagus cuniculus. The experiment in a line: Plasma concentration at the dose of 100 ug/kg in rabbit. The format is functional, organism-based.
The target in data set [7] is T2, Prothrombin. The data set can be described thus: Inhibitory concentration against factor IIa.
A short description of data set [8]: Half-life period in rabbits following intravenous administration at 2 mg/kg. Particulars: rabbit, in vivo. The format is ADME, organism-based, Oryctolagus cuniculus. More on the design: dose 2 mg/kg, route intravenous.
In data set [9] the test system is Oryctolagus cuniculus. The experiment in a line: Percent inhibition of thrombosis at the dose of 25 ug/kg in rabbit deep vein thrombosis model. The format is functional. Particulars: at 25 µg/kg.

We go through 27 compounds from ChEMBL document CHEMBL1136571, “Design, synthesis and structure-activity relationships of benzoxazinone-based factor Xa inhibitors” (Bioorg Med Chem Lett, 2003).

On Anionic trypsin-2, `CCOC(=O)CS(=O)(=O)N(Cc1cc2cc(C(=N)N)ccc2s1)c1ccc(OC2CCN(C(C)=N)CC2)cc1` yielded a 50% inhibitory concentration (IC50) of 86 nM.
In the case of `CC(=N)N1CCC(Oc2ccc(N(Cc3cc4cc(C(=N)N)ccc4s3)S(C)(=O)=O)cc2)CC1`, the figures for the concentration for half-maximal inhibition (IC50) on Prothrombin [1] and at Anionic trypsin-2 were over 10000 nM and 21 nM, respectively.
Regarding `CC(=N)N1CCC(Oc2ccc3c(c2)OCC(=O)N3Cc2cc3ccc(C(=N)N)cc3n2C)CC1`, at Anionic trypsin-2, the IC50 was determined as 76 nM.
With `CC(=N)N1CCC(Oc2ccc3c(c2)OCC(=O)N3Cc2cc(-c3cccc(C(=N)N)c3)no2)CC1`, the IC50 was over 10000 nM against Prothrombin [1] and 250000 nM at Anionic trypsin-2.
Turning to `CC(=N)N1CCC(Oc2ccc(N(Cc3cc4cc(C(=N)N)ccc4s3)S(=O)(=O)CC(=O)O)cc2)CC1`, the figures for the IC50 at Coagulation factor X and against Anionic trypsin-2 were 3 nM and 63 nM, respectively.
For `CC(=N)N1CCC(Oc2ccc(N(Cc3ccccc3-c3cccc(C(=N)N)c3)S(C)(=O)=O)cc2)CC1`, the results for the IC50 at Prothrombin [1], at Coagulation factor X and against Anionic trypsin-2 were over 10000 nM, 7000 nM and over 10000 nM, respectively.
For `CC(=N)N1CCC(Oc2ccc(N(Cc3ccc(-c4cccc(C(=N)N)c4)cc3)S(C)(=O)=O)cc2)CC1`, the IC50 was over 10000 nM against Prothrombin [1] and 769 nM against Anionic trypsin-2.
For `CC(=N)N1CCC(Oc2ccc3c(c2)OCC(=O)N3Cc2cccc(-c3cccc(C(=N)N)c3)c2)CC1` the same measures were over 10000 nM and 143 nM.
At Coagulation factor X, `CC(=N)N1CCN(C(=O)c2ccc(N(Cc3ccc4ccc(C(=N)N)cc4c3)S(C)(=O)=O)cc2)CC1` registered an IC50 of 1570 nM.
In the case of `CC(=N)N1CCC(Oc2ccc(N(Cc3cc(C)n(-c4cccc(C(=N)N)c4)n3)S(C)(=O)=O)cc2)CC1`, the IC50 was over 10000 nM at Prothrombin [1] and 2110 nM on Anionic trypsin-2.
With `CC(=N)N1CCC(Oc2ccc(N(Cc3cc4cc(C(=N)N)ccc4n3C)S(C)(=O)=O)cc2)CC1`, the IC50 against Prothrombin [1] was over 10000 nM; against Coagulation factor X it was 31 nM; against Anionic trypsin-2, 167 nM.
Regarding `CC(=N)N1CCC(Oc2ccc(N(Cc3cc4ccc(C(=N)N)cc4n3C)S(C)(=O)=O)cc2)CC1`, the IC50 at Prothrombin [1] was over 10000 nM; against Coagulation factor X it was 0.8 nM; at Anionic trypsin-2, 25 nM.
`CCOC(=O)CS(=O)(=O)N(Cc1cccc(-c2cccc(C(=N)N)c2)c1)c1ccc(OC2CCN(C(C)=N)CC2)cc1`: the concentration for half-maximal inhibition (IC50) on Coagulation factor X is 7 nM; at Anionic trypsin-2, 292 nM.
In the case of `CC(=N)N1CCC(Oc2ccc(N(Cc3cc(C)nn3-c3cccc(C(=N)N)c3)S(C)(=O)=O)cc2)CC1`, the IC50 on Prothrombin [1] and against Anionic trypsin-2 was over 10000 nM throughout.
Consider `CC(=N)N1CCC(Oc2ccc(N(Cc3cccc(-c4cccc(C(=N)N)c4)c3)S(=O)(=O)CC(=O)O)cc2)CC1`, for which the half-maximal inhibitory concentration (IC50) on Coagulation factor X worked out at 3 nM; at Anionic trypsin-2, 269 nM.
For the compound `CC(=N)N1CCC(Oc2ccc(N(Cc3ccc4ccc(C(=N)N)cc4c3)S(=O)(=O)CC(=O)O)cc2)CC1` [YM-60828], at Anionic trypsin-2, the IC50 is 63 nM.
On to `CCOC(=O)CS(=O)(=O)N(Cc1ccc2ccc(C(=N)N)cc2c1)c1ccc(OC2CCN(C(C)=N)CC2)cc1`, for which the results for the half-inhibitory concentration (IC50) against Coagulation factor X and against Anionic trypsin-2 were 6 nM and 83 nM, respectively.
Regarding `CC(=N)N1CCC(Oc2ccc3c(c2)OCC(=O)N3Cc2ccc3ccc(C(=N)N)cc3c2)CC1`, in data set [2], the bioavailability is 4.6%. For the same compound, the inhibition in vivo at 0.1 mg/kg with Oryctolagus cuniculus [3] came to 99%. For the same compound, the values for the half-life in data set [4] and in data set [8] were 30 min and 54 min, respectively. For the same compound, the inhibition in vivo at 0.05 mg/kg with Oryctolagus cuniculus [5] stood at 44%. For the same compound, in the data set with Oryctolagus cuniculus [6], the Concentration stood at 200 nM. Besides, the IC50 against Prothrombin [7] is over 10000 nM; at Anionic trypsin-2 it was 28 nM. The inhibition in vivo at 0.025 mg/kg with Oryctolagus cuniculus [9] was 7%.
Regarding `CC(=N)N1CCC(Oc2ccc(N(Cc3ccc4ccc(C(=N)N)cc4c3)S(C)(=O)=O)cc2)CC1`, the IC50 against Prothrombin [1] is over 10000 nM; on Coagulation factor X it was 6 nM; at Anionic trypsin-2, 94 nM.
In turn, `CS(=O)(=O)N(Cc1cccc(-c2cccc(C(=N)N)c2)c1)c1ccc(-c2ccccc2S(N)(=O)=O)cc1` had an IC50 against Coagulation factor X of 191 nM. This counts as sub-micromolar.
In the case of `CC(=N)N1CCC(Oc2ccc(N(Cc3cc(-c4cccc(C(=N)N)c4)no3)S(C)(=O)=O)cc2)CC1`, the values for the concentration for half-maximal inhibition (IC50) at Prothrombin [1], against Coagulation factor X and against Anionic trypsin-2 were over 10000 nM, 14 nM and over 10000 nM, respectively.
Turning to `CC(=N)N1CCC(Oc2ccc(N(Cc3ccccc3-c3ccc(C(=N)N)cc3)S(C)(=O)=O)cc2)CC1`, the IC50 against Prothrombin [1], on Coagulation factor X and at Anionic trypsin-2 was over 10000 nM throughout.
With `CCn1c(CN2C(=O)COc3cc(OC4CCN(C(C)=N)CC4)ccc32)cc2ccc(C(=N)N)cc21`, the values for the half-inhibitory concentration (IC50) against Coagulation factor X and against Anionic trypsin-2 were 2 nM and 58 nM, respectively.
Compound `Cc1cc(CN(c2ccc(-c3ccccc3S(N)(=O)=O)cc2)S(C)(=O)=O)nn1-c1cccc(C(=N)N)c1` had a concentration for half-maximal inhibition (IC50) on Coagulation factor X of 3930 nM.
In the case of `CC(=N)N1CCC(Oc2ccc(N(Cc3cccc(-c4cccc(C(=N)N)c4)c3)S(C)(=O)=O)cc2)CC1`, the figures for the IC50 at Prothrombin [1] and against Anionic trypsin-2 were over 10000 nM and 360 nM, respectively.
`Cc1cc(CN(c2ccc(-c3ccccc3S(N)(=O)=O)cc2)S(C)(=O)=O)n(-c2cccc(C(=N)N)c2)n1` yielded a concentration for half-maximal inhibition (IC50) on Coagulation factor X of 500 nM.
Still for that read-out and setting: the result for `CS(=O)(=O)N(Cc1ccc2ccc(C(=N)N)cc2c1)c1ccc(-c2ccccc2S(N)(=O)=O)cc1` reads 153 nM.

A word on the IC50: it is the midpoint of a concentration-inhibition curve. A lower IC50 goes with greater potency in that assay. What is called bioavailability is the share of a dose that reaches the circulation, judged against a reference dose that is usually intravenous. A lower bioavailability goes with poor availability. What is called inhibition in vivo is how much of the control response was suppressed. Low values mean little suppression, high ones strong suppression. A word on the half-life: it is how long it takes for the measured level to halve. The low end stands for rapid decline, the high end for slow decline.
